The values below come from patent US20060293516A1, “Penicillin crystal and process for producing the same” (priority 2003, published 2006).

Structures are written as SMILES.

Data set [1] is described as follows: Stability of CMPB in dichloromethane solution, remaining CMPB by liquid chromatography. The data set is classed as physicochemical. The following applies: stirred at room temperature (about 25° C.). How it is done:
One gram of crystalline CMPB (purity: 97%) prepared by storing the crystalline CMPB of Example 1 for 20 days at room temperature (about 25° C.) and 1.244 g of amorphous CMPB (purity: 78%) prepared by storing the amorphous CMPB of Reference Example 1 for 20 days at room temperature (about 25° C.) were used as test samples. Each sample was placed in flasks and 10 ml dichloromethane was added to dissolve the sample. These flasks were sealed. […] The amounts of the remaining CMPB were compared with the amount of CMPB in the crystalline CMPB sample or the amount of CMPB in the amorphous CMPB sample, which were measured prior to the test.

A short description of data set [2]: Storage stability of solid CMPB at room temperature, purity by liquid chromatography. The data set is classed as physicochemical. How it is done: Five grams of the crystalline CMPB obtained in Example 1 (purity: 100%) and 5 g of the amorphous CMPB obtained in Reference Example 1 (purity: 99.2%) were placed in respective test tubes. These test tubes were sealed and stored at room temperature (20 to 30° C.) for 1 month. The respective purities of the CMPB samples were then determined using liquid chromatography.
One gram of crystalline CMPB (purity: 97%) prepared by storing the crystalline CMPB of Example 1 for 20 days at room temperature (about 25° C.) and 1.244 g of amorphous CMPB (purity: 78%) prepared by storing the amorphous CMPB of Reference Example 1 for 20 days at room temperature (about 25° C.) were used as test samples. Each sample was placed in flasks and 10 ml dichloromethane was added to dissolve the sample. These flasks were sealed. The dichloromethane solutions of CMPB samples were stirred at room temperature (about 25° C.) and, after 3.5 hours and after […], subjected to liquid chromatography to measure the amounts of CMPB remaining in the solutions. The amounts of the remaining CMPB were compared with the amount of CMPB in the crystalline CMPB sample or the amount of CMPB in the amorphous CMPB sample, which were measured prior to the test.

Where [3] appears, read: sealed test tube, room temperature (20 to 30° C.), 1 month, initial purity 100% (crystalline), 99.2% (amorphous).
[4] abbreviates: stored 20 days at room temperature (about 25° C.).

On to `C[C@@]1(CCl)SC2CC(=O)N2[C@H]1C(=O)OC(c1ccccc1)c1ccccc1` (stereo partly drawn) [amorphous CMPB, 2β-chloromethyl-2α-methylpenam-3α-carboxylic acid benzhydryl ester], for which the “amount of CMPB remaining in dichloromethane solution relative to initial amount” value is 86.8% in data set [1] (after 3.5 hours) and 63.4% in data set [1] (after 6 hours (so in the source)). Further, the purity after storage in data set [2] (setting [3]) was 67%; in data set [2] (setting [4]), 78%.
As to `C[C@@]1(CCl)SC2CC(=O)N2[C@H]1C(=O)OC(c1ccccc1)c1ccccc1` (stereo partly drawn) [crystalline CMPB, 2β-chloromethyl-2α-methylpenam-3α-carboxylic acid benzhydryl ester], the “amount of CMPB remaining in dichloromethane solution relative to initial amount” value in data set [1] (after 3.5 hours) and in data set [1] (after 5 hours) was “exactly the same as the initial amount” throughout. For the same compound, the values for the purity after storage in data set [2] (setting [3]) and in data set [2] (setting [4]) were 95% and 97%, respectively.
